Results as given in patent publication US10662204B2 (PFIZER INC., priority 2018, dated 2020).

Experiments:
KRAS G12C [1] = target: T1, KRAS G12C (Homo sapiens, UniProt P01116, G12C); experiment: Cell Activity Assay: accumulation of GDP-bound KRAS G12C in MIAPaCa-2 cells (Raf-1 RBD capture, MSD readout); format: cell-based; set-up: endogenous in cells; host or cells: MIAPaCa-2; conditions: 6 hours, assay limit is 30.00
How it was run: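 MIAPaCa-2 cells exposed 6 h at 37 °C to 3-fold compound dilutions (0.3% DMSO final), then lysed. Active GTP-KRAS captured on Raf-1 RBD-coated plates, detected with anti-pan-Ras and SULFO-TAG secondary by MSD electrochemiluminescence. Signal normalized to DMSO and maximum inhibition; IC50 from 4-parameter fit.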

KRAS G12C [2] = target: T1, KRAS G12C; experiment: Cell Activity Assay: IC50 in H358 cells; format: cell-based; set-up: endogenous in cells
Experimental: Compounds presented in the present invention lead to the accumulation of the GDP bound Ras upon treatment of human cancer cell line.
The accumulation of the GDP-bound KRAS G12C in cellular environment was measured based on the principle that KRAS G12C only binds to its downstream kinase; Raf-1 (MAP Kinase Kinase Kinase), when in its active-GTP bound state. In this state, Ras binded to a domain of Raf-1 kinase referred to as the Ras Binding Domain (RBD).
Raf-1 RBD (LJIC-1988A1) was diluted to 100 ng/well in PBS and 5 μl/well was spot coated onto MSD high bind SECTOR plates (L15XB). Plates were incubated at room temperature for 1 hour on an orbital shaker. Plates were washed with PBS/0.05% Tween-20 and 50 μl/well of thawed lysate samples were added, followed by 50 μl of 1% MSD Blocker A in PBS/0.05 Tween-20 (R93BA). Plates were incubated for 1 hour on an orbital shaker and washed with PBS/0.05% Tween-20. 25 μl/well of Anti-pan-Ras Antibody (Cell Biolabs 244003) diluted 1:3000 was added in 1% MSD Blocker A solution and plates were incubated for 1 hour on an orbital shaker and washed with PBS/0.05% Tween-20. SULFO-TAG goat anti-mouse secondary antibody (MSD R32AC) was diluted 1:500 in MSD Blocker A solution and added at 25 μL/well. Plates were incubated for 1 hour on an orbital shaker and washed with PBS/0.05% Tween-20. 150 μl/well of Read Buffer T (MSD R92TC) diluted 1:3 in H2O was added and plates were read on a Meso Scale Discovery Sector Imager S600.
KRAS signal was normalized to maximum inhibition and DMSO control values, and IC50 values were generated using a 4 parameter fit of the dose response curve. The decrease in IC50 reflects that the exemplary compound lead to a higher level of accumulation of GDP-bound KRAS G12C than another exemplary compounds at specific timepoint of treatment of cancer cell line.

[3] = target: T2, GDP-loaded KRAS (1-169) G12C, C51S, C80L, C118S (Homo sapiens, UniProt P01116, C118S/C51S/C80L/G12C); experiment: Mass Spectrometry Reactivity Assay (MSRA): covalent adduct of compound and KRAS G12C, Percent Modification; format: binding; conditions: for MSRA (% modification) 10 μM 0.25 hr / MSRA (% modification) 10 μM 0.50 hr: 10 μM compound; for MSRA (% modification) 5.0 μM 0.017 hr / MSRA (% modification) 5.0 μM 0.25 hr: 5.0 μM compound
T2 construct: GDP-loaded KRAS (1-169) G12C, C51S, C80L, C118S
How it was run: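 GDP-loaded KRAS(1-169) G12C/C51S/C80L/C118S at 5 μM in 25 mM Hepes pH 7.5, 200 mM NaCl, 5% glycerol incubated at RT with compound (typically 5 or 10 μM final, 1% DMSO). Quenched in formic acid at 1-60 min; intact-protein LC-TOF MS gives % modification = modified/(modified+unmodified).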

Structure (SMILES)	IC50 (KRAS G12C [1])	IC50 (KRAS G12C [2])	MSRA (% modification) 10 μM 0.25 hr [3]	MSRA (% modification) 10 μM 0.50 hr [3]	MSRA (% modification) 5.0 μM 0.017 hr [3]	MSRA (% modification) 5.0 μM 0.25 hr [3]
C=CC(=O)N1CCN(c2nc(OC[C@@H]3CCCN3C)nc3c(Oc4c(Cl)ccc5[nH]ncc45)nc(Cl)cc23)CC1 [Example 09G, 1-[4-(6-chloro-8-[(5-chloro-1H-indazol-4-yl)oxy]-2-{[(2S)-1-methylpyrrolidin-2-yl]methoxy}pyrido[3,4-d]pyrimidin-4-yl)piperazin-1-yl]prop-2-en-1-one]	0.069 µM	0.123 µM	81%	–	–	–
C=CC(=O)N1CCN(c2nc(N3CC(N(C)C)C3)nc3c(Oc4c(C)ccc5[nH]ncc45)nccc23)CC1 [Example 02B, 1-(4-{2-[3-(dimethylamino)azetidin-1-yl]-8-[(5-methyl-1H-indazol-4-yl)oxy]pyrido[3,4-d]pyrimidin-4-yl}piperazin-1-yl)prop-2-en-1-one]	7.84 µM	8.2 µM	–	30%	–	–
C=CC(=O)N1CCN(c2nc(OC[C@@H]3C[C@H](OC)CN3C)nc3c(Oc4c(Cl)c(F)cc5[nH]ncc45)nc(Cl)cc23)CC1 [Example 20G, 1-[4-(6-chloro-8-[(5-chloro-6-fluoro-1H-indazol-4-yl)oxy]-2-{[(2S,4S)-4-methoxy-1-methylpyrrolidin-2-yl]methoxy}pyrido[3,4-d]pyrimidin-4-yl)piperazin-1-yl]prop-2-en-1-one]	0.08 µM	0.152 µM	79%	–	26%	–
C=CC(=O)N1CCN(c2ncnc3c(Oc4c(Cl)c(F)cc5[nH]ncc45)nc(Cl)cc23)CC1 [Example 20A, 1-(4-{6-chloro-8-[(5-chloro-6-fluoro-1H-indazol-4-yl)oxy]pyrido[3,4-d]pyrimidin-4-yl}piperazin-1-yl)prop-2-en-1-one]	0.255 µM	0.758 µM	73%	80%	–	85%
C=CC(=O)N1CCN(c2nc(OC[C@@H]3CN(C)C[C@H]3OC)nc3c(Oc4c(Cl)c(F)cc5[nH]ncc45)nc(Cl)cc23)CC1 [Example 19G, 1-[4-(6-chloro-8-[(5-chloro-6-fluoro-1H-indazol-4-yl)oxy]-2-{[(3S,4S)-4-methoxy-1-methylpyrrolidin-3-yl]methoxy}pyrido[3,4-d]pyrimidin-4-yl)piperazin-1-yl]prop-2-en-1-one]	0.051 µM	0.109 µM	60%	–	–	–
C=CC(=O)N1CCN(c2nc(OC[C@@H]3CCCN3C)nc3c(Oc4c(C)ccc5[nH]ncc45)cccc23)CC1 [Example 07E, 1-[4-(8-[(5-methyl-1H-indazol-4-yl)oxy]-2-{[(2S)-1-methylpyrrolidin-2-yl]methoxy}quinazolin-4-yl)piperazin-1-yl]prop-2-en-1-one]	0.23 µM	0.501 µM	79%	82%	–	67%
C=CC(=O)N1CCN(c2nc(OC[C@@H]3CCCN3C)nc3c(Oc4c(Cl)c(F)cc5[nH]ncc45)nccc23)CC1 [Example 01H, 1-[4-(8-[(5-chloro-6-fluoro-1H-indazol-4-yl)oxy]-2-{[(2S)-1-methylpyrrolidin-2-yl]methoxy}pyrido[3,4-d]pyrimidin-4-yl)piperazin-1-yl]prop-2-en-1-one]	0.117 µM	0.191 µM	81%	–	–	66%
C=CC(=O)N1CCN(c2nc(OC[C@H]3CN(C)C[C@@H]3OC)nc3c(Oc4c(Cl)c(F)cc5[nH]ncc45)nc(Cl)cc23)CC1 [Example 18G, 1-[4-(6-chloro-8-[(5-chloro-6-fluoro-1H-indazol-4-yl)oxy]-2-{[(3R,4R)-4-methoxy-1-methylpyrrolidin-3-yl]methoxy}pyrido[3,4-d]pyrimidin-4-yl)piperazin-1-yl]prop-2-en-1-one]	0.034 µM	0.087 µM	81%	84%	43%	88%
C=CC(=O)N1CCN(c2nc(OCC3CCCO3)nc3c(Oc4c(Cl)c(F)cc5[nH]ncc45)nc(Cl)cc23)CC1 (centres unmarked) [Example 11G, 1-(4-{6-chloro-8-[(5-chloro-6-fluoro-1H-indazol-4-yl)oxy]-2-(tetrahydrofuran-2-ylmethoxy)pyrido[3,4-d]pyrimidin-4-yl}piperazin-1-yl)prop-2-en-1-one]	0.102 µM	0.448 µM	77%	–	–	–
C=CC(=O)N1CCN(c2ncnc3c(Oc4c(Cl)c(C)cc5[nH]ncc45)nccc23)CC1 [Example 11A, 1-(4-{8-[(5-chloro-6-methyl-1H-indazol-4-yl)oxy]pyrido[3,4-d]pyrimidin-4-yl}piperazin-1-yl)prop-2-en-1-one]	0.892 µM	2.56 µM	44%	68%	–	–
C=CC(=O)N1CCN(c2nc(OC[C@@H]3CCCN3C)nc3c(Oc4c(Cl)c(F)cc5[nH]ncc45)nc(Cl)cc23)CC1 [Example 01G, 1-[4-(6-chloro-8-[(5-chloro-6-fluoro-1H-indazol-4-yl)oxy]-2-{[(2S)-1-methylpyrrolidin-2-yl]methoxy}pyrido[3,4-d]pyrimidin-4-yl)piperazin-1-yl]prop-2-en-1-one]	0.04 µM	0.06 µM	82%	–	–	–
C=CC(=O)N1CCN(c2nc(OC[C@@H]3CCCN3C)nc3c(Oc4c(Cl)c(F)cc5[nH]ncc45)nc(Cl)cc23)C[C@H]1C [Example 04G, 1-[(2R)-4-(6-chloro-8-[(5-chloro-6-fluoro-1H-indazol-4-yl)oxy]-2-{[(2S)-1-methylpyrrolidin-2-yl]methoxy}pyrido[3,4-d]pyrimidin-4-yl)-2-methylpiperazin-1-yl]prop-2-en-1-one]	0.393 µM	–	49%	–	–	–
C=CC(=O)N1CCN(c2nc(O[C@@H]3CN(C)C[C@H]3CC)nc3c(Oc4c(Cl)c(F)cc5[nH]ncc45)nccc23)CC1 (racemic) [Example 21I, rac-1-[4-(8-[(5-chloro-6-fluoro-1H-indazol-4-yl)oxy]-2-{[(3S,4R)-4-ethyl-1-methyl-pyrrolidin-3-yl]oxy}pyrido [3,4-d]pyrimidin-4-yl)piperazin-1-yl]prop-2-en-1-one]	0.094 µM	–	–	–	42%	–
C=CC(=O)N1CCN(c2nc(OC[C@@H]3C[C@@H](OC)CN3C)nc3c(Oc4c(Cl)c(F)cc5[nH]ncc45)nccc23)CC1 [Example 13H, 1-[4-(8-[(5-chloro-6-fluoro-1H-indazol-4-yl)oxy]-2-{[(2S,4R)-4-methoxy-1-methylpyrrolidin-2-yl]methoxy}pyrido[3,4-d]pyrimidin-4-yl)piperazin-1-yl]prop-2-en-1-one]	0.311 µM	–	83%	–	–	65%
